Data published in ChEMBL document CHEMBL5113449, “Evaluation of aminopyrrolidine amide to improve chloride transport in CFTR-defective cells” (Bioorg Med Chem Lett, 2022).
The source made the active and inactive calls. The rule behind the calls is not given here.

Legend:
[1] = tested on: CFBE41o-; test: Induction of UPR in human CFBE41o- cells expressing CFTR P.Phe508del mutant assessed as upregulation of XBP1 mRNA expression by RT-PCR analysis; type: functional, cell-based
[2] = Restoration of CFTR chloride channel activity in human CFBE41o- cells expressing CFTR P.Phe508del mutant assessed as increase in channel function by measuring Cl- current at 10 uM at -80 mV holding potential incubated for 48 hrs by whole cell patch clamp assay (reference value: 32.98 +/- 14.71 pA/pF); type: functional
[3] = tested on: CFBE41o-; test: Induction of UPR in human CFBE41o- cells expressing CFTR P.Phe508del mutant assessed as upregulation of PERK mRNA expression by RT-PCR analysis; type: functional, cell-based
[4] = Cytotoxicity against human CFBE41o- cells expressing CFTR P.Phe508del mutant at 10 uM incubated for 48 hrs by MTT assay; type: toxicity, cell-based
[5] = tested on: BHK; test: Restoration of CFTR chloride channel activity in […] BHK cells expressing 3HA-epitope tagged CFTR P.Phe508del mutant assessed as increase in exportation of mutant CFTR to membrane by measuring mature CFTR by immunoblot analysis; type: functional, cell-based
[6] = tested on: CFBE41o-; test: Induction of UPR in human CFBE41o- cells expressing CFTR P.Phe508del mutant assessed as upregulation of IRE1 mRNA expression by RT-PCR analysis; type: functional, cell-based
[7] = tested on: CFBE41o-; test: Restoration of CFTR chloride channel activity in human CFBE41o- cells expressing CFTR P.Phe508del mutant assessed as increase in transcription of CFTR P.Phe508del mutant mRNA expression by RT-qPCR analysis; type: functional, cell-based
[8] = tested on: CFBE41o-; test: Upregulation of ATF6 protein expression in human CFBE41o- cells expressing CFTR P.Phe508del mutant by Western blot analysis; type: functional, cell-based
[9] = tested on: CFBE41o-; test: Upregulation of BiP protein expression in human CFBE41o- cells expressing CFTR P.Phe508del mutant by Western blot analysis; type: functional, cell-based
[10] = tested on: CFBE41o-; test: Upregulation of cleaved form of ATF6 protein expression in human CFBE41o- cells expressing CFTR P.Phe508del mutant by Western blot analysis; type: functional, cell-based

Q: For CCN(CC)Cc1ccc(C(=O)N(CCc2ccccc2OC)[C@@H]2CCNC2)cc1, which Activity [1] is on record?
A: The Activity was “Active”.

Q: And the Activity [2]?
A: The Activity was 82.67 pA/pF.

Q: And the Activity [3]?
A: Its Activity is “Active”.

Q: What about the Activity [4] of the same compound?
A: Its Activity is “Non-Toxic”.

Q: And the Activity [5]?
A: The Activity was “Active”.

Q: What about the Activity [6] of the same compound?
A: The Activity was “Active”.

Q: And the Activity [7]?
A: Its Activity is “Active”.

Q: And the Activity [8]?
A: The Activity was “Active”.

Q: And the Activity [9]?
A: The Activity was “Active”.

Q: What about the Activity [10] of the same compound?
A: Its Activity is “Active”.
